In one series the test system is DU-145. The series can be described thus: Antiproliferative activity against human DU-145 cells assessed as cell growth inhibition at 25 uM incubated for 72 hrs by MTT assay relative to control. The class given is functional.
In another series the test system is A2780. In words: Antiproliferative activity against human A2780 cells assessed as cell growth inhibition at 25 uM incubated for 72 hrs by MTT assay relative to control. The class given is functional. In general terms: Tetrazolium assays rely on reduction of a dye to a coloured formazan, in cell work by metabolically active cells.
The nature of series [1]: Antiproliferative activity against human SJG2 cells assessed as cell growth inhibition at 25 uM incubated for 72 hrs by MTT assay relative to control. The class given is functional. The following applies: SJ-G2.
The next series concerns MCF7. The series can be described thus: Antiproliferative activity against human MCF7 cells assessed as cell growth inhibition at 25 uM incubated for 72 hrs by MTT assay relative to control. The class given is functional.
The next series concerns NCI-H460. In words: Antiproliferative activity against human NCI-H460 cells assessed as cell growth inhibition at 25 uM incubated for 72 hrs by MTT assay relative to control. The class given is functional.
The next series deals with BE(2)-C. The series can be described thus: Antiproliferative activity against human BE2C cells assessed as cell growth inhibition at 25 uM incubated for 72 hrs by MTT assay relative to control. It counts as functional.
For a further series, the system named is HT-29. The series can be described thus: Antiproliferative activity against human HT-29 cells assessed as cell growth inhibition at 25 uM incubated for 72 hrs by MTT assay relative to control. It counts as functional.
A further series deals with A-431. In words: Antiproliferative activity against human A-431 cells assessed as cell growth inhibition at 25 uM incubated for 72 hrs by MTT assay relative to control. It counts as functional.
A further series concerns MIA PaCa-2. The series can be described thus: Antiproliferative activity against human MIA PaCa-2 cells assessed as cell growth inhibition at 25 uM incubated for 72 hrs by MTT assay relative to control. The class given is functional.
The subject of the next series is U-87 MG. The series can be described thus: Antiproliferative activity against human U87 cells assessed as cell growth inhibition at 25 uM incubated for 72 hrs by MTT assay relative to control. It counts as functional, U-87MG ATCC.
Series [2] in a line: Cytotoxicity against human MCF-10A cells assessed as cell growth inhibition at 25 uM incubated for 72 hrs by MTT assay relative to control. The class given is toxicity, cell-based.

One may read the inhibition as the share of the control response that was lost under treatment.

With `N#Cc1cccc(C2NC(=O)c3ccccc3N2)c1` (configuration not stated), the inhibition at 25 µM in the series on DU-145 was found to be 26%; in the series with A2780 it was 54%; in [1] it was 18%; in the series with MCF7 it was 60%; with NCI-H460 it was 17%; in the series with BE(2)-C, 20%. Moreover, the inhibition at 25 µM amounted to 31% with HT-29, 34% with A-431, 14% with MIA PaCa-2 and 19% in the series on U-87 MG. The inhibition at 72 h, 25 µM in [2] stood at 12%.

`O=C1NC(c2cccnc2)Nc2ccccc21` (configuration not stated): the inhibition at 25 µM with DU-145 is under 10%; with A2780, under 10%; in series [1] it was under 10%; in the series with MCF7, 21%; with NCI-H460, under 10%; with BE(2)-C it was under 10%. The inhibition at 25 µM was under 10% in the series with HT-29, under 10% with A-431, 11% with MIA PaCa-2 and under 10% with U-87 MG. Also, in [2], the inhibition at 72 h, 25 µM was under 10%.

On to `O=C1NC(C2CCCCC2)Nc2ccccc21` (configuration not stated), for which the inhibition at 25 µM was 18% in the series with DU-145; 41% in the series on A2780; under 10% in series [1]; 18% in the series with MCF7; under 10% in the series on NCI-H460; 32% with BE(2)-C. Also, the inhibition at 25 µM was 23% with HT-29, 22% in the series with A-431, 12% with MIA PaCa-2 and 10% in the series with U-87 MG. Moreover, the inhibition at 72 h, 25 µM in [2] was 8%.

For the compound `CCCCC1NC(=O)c2ccccc2N1` (configuration not stated), the inhibition at 25 µM is 25% in the series on DU-145; 59% with A2780; under 10% in series [1]; 25% with MCF7; under 10% with NCI-H460; 38% in the series on BE(2)-C. Further, the inhibition at 25 µM was 32% with HT-29, 30% in the series on A-431, 16% in the series with MIA PaCa-2 and 9% in the series with U-87 MG. For the same compound, the inhibition at 72 h, 25 µM in series [2] turned out to be 13%.

On to `Oc1nc(-c2ccncc2)nc2ccccc12`, for which the inhibition at 25 µM was under 10% with DU-145; under 10% in the series on A2780; under 10% in series [1]; under 10% in the series with MCF7; 15% in the series with NCI-H460; under 10% with BE(2)-C. Besides, the inhibition at 25 µM with HT-29 is 11%; in the series on A-431, under 10%; with MIA PaCa-2, 10%; in the series with U-87 MG it was under 10%. The inhibition at 72 h, 25 µM in series [2] was under 10%.

In the case of `O=C1NC(c2ccc(Br)o2)Nc2ccccc21` (configuration not stated), the inhibition at 25 µM with DU-145 is under 10%; with A2780, 37%; in series [1], 12%; in the series with MCF7 it was 13%; in the series with NCI-H460, under 10%; in the series with BE(2)-C, 20%. Further, the inhibition at 25 µM in the series with HT-29, in the series with A-431, with MIA PaCa-2 and in the series on U-87 MG was under 10% throughout. In addition, the inhibition at 72 h, 25 µM in series [2] is under 10%.

With `CCCC/C=C/c1nc2ccccc2c(=O)[nH]1`, the inhibition at 25 µM with DU-145 was 26%; in the series on A2780, 43%; in [1] it was 16%; in the series on MCF7 it was 16%; with NCI-H460, 33%; in the series with BE(2)-C, under 10%. The inhibition at 25 µM with HT-29 was under 10%; with A-431, 22%; with MIA PaCa-2 it was 18%; with U-87 MG it was 25%. Further, the inhibition at 72 h, 25 µM in series [2] is 11%.

Turning to `O=c1[nH]c(-c2ccccc2Br)nc2ccccc12`, the inhibition at 25 µM in the series on DU-145 worked out at 25%; with A2780, 13%; in series [1], 11%; with MCF7, 10%; in the series with NCI-H460, 20%; in the series with BE(2)-C, 23%. The inhibition at 25 µM in the series with HT-29 amounted to 15%; in the series with A-431 it was 12%; in the series with MIA PaCa-2 it was 24%; with U-87 MG it was 14%. In [2], the inhibition at 72 h, 25 µM came out at 17%.

Turning to `O=C1NC(c2ccc3nsnc3c2)Nc2ccccc21` (configuration not stated), the inhibition at 25 µM in the series on DU-145 amounted to 22%; in the series on A2780 it was 60%; in [1], 29%; in the series on MCF7 it was 49%; in the series on NCI-H460, 21%; in the series with BE(2)-C it was 64%. The inhibition at 25 µM in the series with HT-29 is 35%; with A-431, 25%; in the series on MIA PaCa-2 it was 22%; in the series with U-87 MG, under 10%. Further, the inhibition at 72 h, 25 µM in series [2] was 41%.

On to `N#Cc1ccc(C2NC(=O)c3ccccc3N2)cc1` (configuration not stated), for which the inhibition at 25 µM is 10% with DU-145; 18% in the series with A2780; 14% in [1]; 40% in the series on MCF7; 11% in the series with NCI-H460; under 10% with BE(2)-C. For the same compound, the inhibition at 25 µM with HT-29 is 16%; with A-431 it was under 10%; in the series with MIA PaCa-2, 11%; in the series with U-87 MG, under 10%. Moreover, in series [2], the inhibition at 72 h, 25 µM turned out to be 10%.

As to `O=C1NC(c2ccccc2C(=O)O)Nc2ccccc21` (configuration not stated), the inhibition at 25 µM in the series on DU-145 turned out to be 20%; in the series with A2780 it was 48%; in series [1], 49%; in the series with MCF7, 49%; with NCI-H460 it was 43%; in the series on BE(2)-C it was 19%. The inhibition at 25 µM with HT-29 was 37%; with A-431, 22%; in the series on MIA PaCa-2 it was 20%; with U-87 MG it was under 10%. The inhibition at 72 h, 25 µM in [2] came out at 20%.

Regarding `O=C1NC(c2ccccc2[N+](=O)[O-])Nc2ccccc21` (configuration not stated), the inhibition at 25 µM in the series on DU-145 is 27%; in the series on A2780 it was 33%; in [1] it was 33%; with MCF7, 16%; in the series with NCI-H460 it was 35%; with BE(2)-C it was under 10%. The inhibition at 25 µM in the series with HT-29 was determined as 28%; in the series with A-431 it was 36%; in the series with MIA PaCa-2 it was 21%; in the series with U-87 MG, 16%. Besides, the inhibition at 72 h, 25 µM in series [2] is 16%.

For `O=C1NC(c2c[nH]c3ccccc23)Nc2ccccc21` (configuration not stated), the inhibition at 25 µM in the series on DU-145 was at least 77%; in the series on A2780 it was 94%; in [1] it was over 100%; in the series on MCF7 it was 78%; with NCI-H460, 87%; with BE(2)-C, 89%. The inhibition at 25 µM is at least 84% in the series on HT-29, at least 79% in the series with A-431, 79% in the series on MIA PaCa-2 and 70% in the series with U-87 MG. Besides, in series [2], the inhibition at 72 h, 25 µM was found to be 90%.

Consider `O=C1NC(C2CCCC2)Nc2ccccc21` (configuration not stated), for which the inhibition at 25 µM was 22% in the series with DU-145; 39% with A2780; under 10% in series [1]; 35% in the series on MCF7; under 10% in the series on NCI-H460; 20% in the series with BE(2)-C. Further, the inhibition at 25 µM in the series on HT-29 is 22%; in the series on A-431, 15%; in the series on MIA PaCa-2, 19%; with U-87 MG it was 11%. The inhibition at 72 h, 25 µM in [2] was found to be 12%.

Take `COc1cc2c(c(OC)c1OC)-c1ccc(OC)c(=O)cc1[C@@H](NC(C)=O)CC2` [COLCHICINE]: the inhibition at 25 µM was determined as 34% in the series on DU-145; 62% in the series on A2780; 47% in [1]; 85% in the series on MCF7; 35% with NCI-H460; 61% with BE(2)-C. The inhibition at 25 µM in the series with HT-29 was determined as 50%; with A-431 it was 11%; in the series on MIA PaCa-2, 89%; in the series with U-87 MG it was 21%. The inhibition at 72 h, 25 µM in series [2] was determined as 57%.

On to `O=C(O)c1ccc(C2NC(=O)c3ccccc3N2)cc1` (configuration not stated), for which the inhibition at 25 µM with DU-145 was 36%; with A2780, under 10%; in series [1], 10%; in the series with MCF7, 41%; with NCI-H460, under 10%; in the series on BE(2)-C, 12%. The inhibition at 25 µM with HT-29 was 18%; with A-431, under 10%; in the series with MIA PaCa-2, 14%; with U-87 MG it was 13%. Also, the inhibition at 72 h, 25 µM in series [2] worked out at 8%.

For `O=C(O)c1cccc(C2NC(=O)c3ccccc3N2)c1` (configuration not stated), the inhibition at 25 µM came to 31% in the series on DU-145; 10% in the series on A2780; 12% in series [1]; 43% with MCF7; 12% in the series with NCI-H460; 12% with BE(2)-C. The inhibition at 25 µM was 24% in the series with HT-29, under 10% in the series with A-431, 13% in the series on MIA PaCa-2 and 10% in the series on U-87 MG. Moreover, in series [2], the inhibition at 72 h, 25 µM was 22%.

The record behind these values is ChEMBL document CHEMBL5532698, “2,3-Dihydroquinazolin-4(1H)-ones and quinazolin-4(3H)-ones as broad-spectrum cytotoxic agents and their impact on tubulin polymerisation” (RSC Med Chem, 2024).
